# Measured values as given in patent US20200246308A1, “SYNERGISTIC COMBINATIONS OF UROLITHINS A AND B FOR IMPROVING COGNITIVE CAPACITY OR COGNITIVE FUNCTION” (Natreon, Inc., priority 2018, published 2020).
# Columns and labels:
# [1] = test system: scopolamine induced dementia in rats; assay: Y-maze test, scopolamine induced dementia in rats (Study 2); format: in vivo, Charles Foster male albino rats; conditions: Donepezil 5 mg/kg i.p.; shilajit effect at 100 mg/kg
# Method: 2.2. Animal subjects. Inbred Charles Foster male albino rats (130-180 g) were obtained from the Central Animal House, Institute of Medical Sciences (IMS), Banaras Hindu University (BHU), Varanasi, Uttar Pradesh, India. These were certified to be pathogen free and were randomly distributed into different experimental groups. The rats were kept in the departmental animal house at an ambient temperature of 25±1° C. and 45-55% RH, with a 12-h light/dark cycle (lights on 7:00-19:00 h). The animals had free access to standard pellet chow and tap water ad libitum. Experiments were conducted between 9:00 and 14:00 h. The behavioral testing was done during the light phase. Animals were housed in groups and acclimatized for at least one week before using them for experiments. Animals were transported in cage covered by dark cloth to the experimental room. The experimental procedures were in compliance with National Institutes of Health Guide for Care and Use of Laboratory Animals.
# The rats were pretreated orally for seven days through an orogastric tube with experimental drugs (10, 25 and 50 mg/kg once daily) suspended in 0.3% carboxymethyl cellulose (CMC). The treatment was continued until the end of the experiment procedures (Singh, G. K., Garabadu, D., Muruganadam, A. V., Joshi, V. K., Krishnamurthy, S., “Antidepressant activity of Asparagus racemosus in animal models of depression,” Pharmacol. Biochem. Behav. (2009) 91(3):283-90). Scopolamine was dissolved in water for injection and administered on day 7 after one hour of drug treatment administration. Donepezil (5 mg/kg; i.p.)
# was used as standard drug. On day 8 the behavioral experiment was performed. The animals were sacrificed and hippocampus was micro-dissected using the coordinates of the rat brain atlas. All control group animals were treated with the 0.3 ml of vehicle (0.3% CMC suspension) equal to the volume of experimental drugs (Ohj a, R., et al., “Asparagus recemosus enhances memory and protects against amnesia in rodent models,” Brain Cogn. (2010) October; 74(1): 1-9).
# Spatial recognition memory, general exploratory behavior, and anxiety-like behavior were assessed by the Y-maze test. Y-maze consists of three similar arms of dimension 50 cm long, 16 cm wide and 32 cm high. In the first trial, the novel arm was blocked and the animal was allowed to move for 15 min in other two arms. In the second trial, the novel arm was opened and the animal was allowed to move for 5 min in all three arms after 4 h of the first trial. The total number of entries in all arms (for 5 min of trial-1 and trial-2) is indicative of general exploration attitude (curiosity). The % entries in known and novel arms for the 5 min period of trial 2 were considered as a measure of spatial recognition memory. Coping strategy to the novel environment was estimated by the percentage of the ratio of time spent in the novel arm to time spent in all arms and in the center of the apparatus during trial 2. The decrease in the coping behavior to the novel environment was considered as an increase in anxiety-like behavior (Krishnamurthy, S., et al., “Risperidone ameliorates post-traumatic stress disorder-like symptoms in modified stress re-stress model,” Neuropharmacology (2013) 75:62-77).
# [2] = test system: acetylcholine (ACh) level in HIP tissue; assay: Acetylcholine level in hippocampal tissue, Amplex Red kit (Example 9D); format: in vivo, Male Wistar rats; conditions: p.o. 7 days: B 50, A 50, Donepezil 3, B:A 10:50 and 50:50, Shilajit 50 mg/kg
# Method: Drug solution was freshly prepared in 0.3% CMC and administered by oral gavage once a day, for a period of 7 days. Briefly, the whole experiment was conducted for 8 days. Scopolamine (1 mg/kg), a muscarinic receptor antagonist, was dissolved in normal saline (0.9% NaCl) and administered intraperitoneally 1 h after drugs administration on seventh day.
# Sample preparation: The animals were killed by decapitation and the brain tissues were dissected out in ice-cold conditions and stored at −80° C. until use. Tissue was homogenized in 1.0 ml of 0.1M perchloric acid with a Potter-Elvehjem homogenizer. The homogenate was kept in the polypropylene tubes for 15 min after which 40 μl of 4M potassium acetate was added to adjust the pH to 4.0 followed by centrifugation for 15 min at 4000×g. Supernatant was used to estimate acetylcholine and AChE activities.
# Samples were prepared as in Example 9C. The amount of acetylcholine in brain tissues was measured using Amplex red assay kit (Molecular Probes, Inc., USA). An acetylcholine standard curve was used in each experiment. Briefly, the reactions are initiated by adding 0.1 ml of control (10 μM H2O2) and tissue homogenates were taken in two separate polypropylene tubes and then 0.1 ml working solution of 400 μM Amplex Red reagent containing 2 U/mL HRP, 0.2 U/mL choline oxidase and 1 U/mL acetylcholinesterase were added to each tube. After incubation for 45 min, the fluorescence was recorded with the help of spectrofluorometer at 530 nm excitation and 590 nm emission wavelengths. The protein content was determined using standard protocol (Lowry, et al., 1951).
# Statistical analyses: The results were expressed as means±Standard Error mean (SEM). The intergroup variation was measured by one-way ANOVA followed by Student-Newman-Keuls test. Two-way followed by Bonferroni test was employed to discover the intergroup variation in Y maze test considering groups and arms as two independent variables. Statistical analysis was done by using Graph Pad prism version 5 (San Diego, Calif.). A level of p<0.05 was accepted as statistically significant.
smiles,measurement,setting,value
"COc1cc2c(cc1OC)C(=O)C(CC1CCN(Cc3ccccc3)CC1)C2 (centres unmarked) [Donepezil, reference compound]",Scopolamine-induced altered exploratory behavior (total arm entries),[1],reversed this activity
same,Scopolamine-induced decrease in ACh level in HIP tissue,[2],the same as 3-OH-DBP (B) (50 mg/kg) group
